From US12428415B2, “Matriptase 2 inhibitors and uses thereof” (Disc Medicine, Inc., priority 2018, dated 2025) come the findings set out here.

Each structure is given as a SMILES string.

One may read the inhibition as the percentage by which the read-out fell short of the control.

For one experiment, the target named is T1, Human Recombinant Matriptase 2 (Homo sapiens, UniProt Q8IU80).
T1 construct: purchased Enzo Life Sciences (an in-house preparation was also used) ALX-201-752-1
T1 sequence (Q8IU80 1-811): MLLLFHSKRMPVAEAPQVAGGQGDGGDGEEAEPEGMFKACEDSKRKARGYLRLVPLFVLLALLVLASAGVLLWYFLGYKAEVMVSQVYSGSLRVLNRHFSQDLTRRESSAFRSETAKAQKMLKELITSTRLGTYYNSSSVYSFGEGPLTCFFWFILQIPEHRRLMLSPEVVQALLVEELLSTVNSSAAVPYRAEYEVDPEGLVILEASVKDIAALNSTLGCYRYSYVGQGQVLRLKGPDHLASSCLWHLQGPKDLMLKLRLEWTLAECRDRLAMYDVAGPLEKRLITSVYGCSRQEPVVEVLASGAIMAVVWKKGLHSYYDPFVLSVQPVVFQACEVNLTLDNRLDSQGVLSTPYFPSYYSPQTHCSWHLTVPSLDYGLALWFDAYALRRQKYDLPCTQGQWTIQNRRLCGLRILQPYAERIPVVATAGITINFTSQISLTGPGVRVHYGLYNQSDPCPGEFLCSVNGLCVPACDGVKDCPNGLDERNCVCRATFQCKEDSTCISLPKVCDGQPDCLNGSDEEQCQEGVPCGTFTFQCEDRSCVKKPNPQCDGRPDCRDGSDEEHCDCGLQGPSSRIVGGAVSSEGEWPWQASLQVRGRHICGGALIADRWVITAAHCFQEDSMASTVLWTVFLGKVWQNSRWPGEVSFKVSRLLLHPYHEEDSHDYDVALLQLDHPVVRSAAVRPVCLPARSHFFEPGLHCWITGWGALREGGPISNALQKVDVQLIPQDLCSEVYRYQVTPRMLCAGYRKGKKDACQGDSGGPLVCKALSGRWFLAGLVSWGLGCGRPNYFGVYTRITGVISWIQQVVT
The experiment in a line: Matriptase 2 fluorescence based inhibition assay, Method B (50 mM TRIS pH 7.5, 150 mM NaCl, 0.01% gelatin). The conditions noted are these: 1 uM compound; Assay Used = B (Method B); read-out: Mar-2 % inhibition at 1 uM. In kind it is biochemical. As to the method:
Test compounds were evaluated for their potential to inhibit Human Recombinant Matriptase 2 (in-house and commercial protein from Enzo Life Sciences—cat log -ALX-201-752-1) using fluorescence based assay. The concentration of Recombinant Matriptase 2 and the substrate used in the assay was: 7 nM (commercial) and 15 nM (Inhouse Matriptase 2) and 100 μM (Boc-Gln-Ala-Arg-7-amido-4-methyl coumarin hydrobromide—Cat log: B4153-Sigma and I-1550 from Bachem) respectively. The assay buffer used was 50 mM TRIS pH 7.5, 150 mM NaCl, 0.01% gelatin (G1393 Sigma). The assay was performed using 384 well black flat bottom plate from grenier (Cat log: 781076) at 25° C. The enzyme and compound preincubated for 30 mins, plate was read 60 mins after substrate addition at wavelength Ex: 360/Em:480 nm. The final assay volume of was 20 μl. Stock solution of compounds were initially prepared in DMSO and appropriate dilutions were made for screening and IC50 determination (final DMSO conc in the assay was 1%). All the measurements were carried out using the Spectramax M5, Molecular devices. The compounds were screened at 1 and 10 μM concentration and IC50 was determined for the interested compounds.
To determine IC50 values, dose response curves were generated by plotting percentage inhibition as a function of inhibitor concentration and the data was fitted to sigmoidal non-linear regression equation (variable slope) using Graph Pad prism software V7.
Take `N=C(N)c1ccc2cc(-c3nccs3)n(Cc3cccc4ccccc34)c2c1` [Compound I-750, 1-(naphthalen-1-ylmethyl)-2-(thiazol-2-yl)-1H-indole-6-carboximidamide]: the inhibition at 1 µM lay in the range of 50 to 75%. The same measure, in the same setting: the figure for `CC(C)COC(=O)NC(=N)c1ccc2cc(C(=O)O)n(Cc3cccc4ccccc34)c2n1` [Compound I-674] is 25 to 50%; for `CN1CC[C@H](COC(=O)c2cc3ccc(C(=N)N)cc3n2Cc2cccc3ccccc23)c2ccccc21` [Compound I-779] it is 25 to 50%. With `N=C(N)c1ccc2cc(C(=O)O)n(Cc3cccc4ccc(Oc5ccccc5)cc34)c2c1` [Compound I-680], the inhibition at 1 µM lay in the range of 25 to 50%. Take `N=C(N)c1ccc2cc(C(=O)N[C@H]3CC[C@H](N)CC3)n(Cc3cc(OCc4ccccc4)cc4ccccc34)c2c1` [Compound I-733]: the inhibition at 1 µM was in the range of 75 to 100%. Still for that read-out and setting: with `N=C(N)c1ccc2cc(C(=O)O)n(Cc3csc4ccccc34)c2n1` [Compound I-724] the figure was 50 to 75%; with `N=C(N)c1ccc2cc(CC(=O)N[C@H]3CC[C@H](N)CC3)n(Cc3cccc4ccccc34)c2c1` [Compound I-717], 75 to 100%.

Staying with this experiment, now noted: 1 uM compound; Assay Used = B; read-out: Mar-2 % inhibition at 1 uM.
For the compound `CN1CCC(NC(=O)c2cc3ccc(C(N)=O)cc3n2Cc2cccc3ccccc23)CC1` [Compound I-457], the inhibition at 1 µM was 0 to 25%. Regarding `N=C(N)c1ccc2cc(NC(=O)[C@H]3CC[C@H](N)CC3)n(Cc3cccc4ccccc34)c2c1` [Compound I-529, (1r,4r)-4-amino-N-(6-carbamimidoyl-1-(naphthalen-1-ylmethyl)-1H-indol-2-yl) cyclohexane-1-carboxamide], the inhibition at 1 µM was in the range of 50 to 75%.

Consider `Cc1cc(C)nc(Oc2cc(Cn3c(C(=O)O)cc4ccc(C(=N)N)cc43)c3ccccc3c2)n1` [Compound I-570], for which the inhibition at 1 µM lay in the range of 25 to 50%.

As to `N=C(N)c1ccc2cc(C(=O)NCCCN3CCCCC3)n(Cc3cccc4ccccc34)c2c1` [Compound I-478], the inhibition at 1 µM fell in the range of 75 to 100%. On the same count and under the same terms, the figure for `CC1(O)CCC(NC(=O)c2cc3ccc(C(=N)N)cc3n2Cc2cccc3ccccc23)CC1` (stereo not drawn) [Compound I-436] is 50 to 75%; for `N=C(N)c1ccc2ccn(Cc3cccc4ccccc34)c2c1` [Compound I-521, 1-(naphthalen-1-ylmethyl)-1H-indole-6-carboximidamide] it is 50 to 75%; for `N=C(N)c1ccc2cc(C(=O)N[C@H]3CC[C@H](N)CC3)n(-c3cccc4ccccc34)c2c1` [Compound I-415, N-((1r,4r)-4-aminocyclohexyl)-6-carbamimidoyl-1-(naphthalen-1-yl)-1H-indole-2-carboxamide] it is 25 to 50%. Regarding `N=C(N)c1ccc2cc(C(=O)O[C@H]3CC[C@H](N)CC3)n(Cc3cccc4ccccc34)c2c1` [Compound I-485, (1r,4r)-4-aminocyclohexyl 6-carbamimidoyl-1-(naphthalen-1-ylmethyl)-1H-indole-2-carboxylate], the inhibition at 1 µM is 75 to 100%.

In the case of `N=C(N)c1ccc2cc(C(=O)O)n(Cc3cccc4ccccc34)c2c1` [Compound I-458, 6-carbamimidoyl-1-(naphthalen-1-ylmethyl)-1H-indole-2-carboxylic Acid], the inhibition at 1 µM is 75 to 100%. On the same count and under the same terms, the figure for `N=C(N)c1ccc2cc(C(=O)NC3CCC(N4CCCC4)CC3)n(Cc3cccc4ccccc34)c2c1` (stereo not drawn) [Compound I-462] is 75 to 100%. For the compound `N=C(N)c1ccc2cc(C(=O)NC3CCOCC3)n(Cc3cccc4ccccc34)c2c1` [Compound I-463], the inhibition at 1 µM was in the range of 50 to 75%. The same measure, in the same setting: the figure for `NC(=O)c1ccc2cc(C(=O)N[C@H]3CC[C@H](N)CC3)n(-c3cccc4ccccc34)c2c1` [Compound I-417, N2-((1r,4r)-4-aminocyclohexyl)-1-(naphthalen-1-yl)-1H-indole-2,6-dicarboxamide] is 0 to 25%.

Staying with this experiment, now noted: compound at 1 uM; Assay Used: B; read-out: Mar-2 % inhibition at 1 uM.
As for `N/C(=N\O)c1ccc2cc(C(=O)NC3CCNCC3)n(Cc3cccc4ccccc34)c2c1` [Compound I-809], the inhibition at 1 µM was in the range of 25 to 50%. Still for that read-out and setting: the figure for `Cc1cccc2sc(Cn3c(C(=O)N[C@H]4CC[C@H](N)CC4)cc4ccc(C(=N)N)cc43)cc12` [Compound I-820] is 25 to 50%.
